The structures appear in SMILES notation.

In the experiment the target is T1, PLK1 (Homo sapiens, UniProt P53350).
T1 construct: endogenous in cells; host or cells: HeLa LgBit (Plk1-HiBit KI): HeLa stably expressing LgBit, with a CRISPR/Cas9 knock-in of HiBit at the endogenous PLK1 locus
T1 sequence (P53350 whole entry): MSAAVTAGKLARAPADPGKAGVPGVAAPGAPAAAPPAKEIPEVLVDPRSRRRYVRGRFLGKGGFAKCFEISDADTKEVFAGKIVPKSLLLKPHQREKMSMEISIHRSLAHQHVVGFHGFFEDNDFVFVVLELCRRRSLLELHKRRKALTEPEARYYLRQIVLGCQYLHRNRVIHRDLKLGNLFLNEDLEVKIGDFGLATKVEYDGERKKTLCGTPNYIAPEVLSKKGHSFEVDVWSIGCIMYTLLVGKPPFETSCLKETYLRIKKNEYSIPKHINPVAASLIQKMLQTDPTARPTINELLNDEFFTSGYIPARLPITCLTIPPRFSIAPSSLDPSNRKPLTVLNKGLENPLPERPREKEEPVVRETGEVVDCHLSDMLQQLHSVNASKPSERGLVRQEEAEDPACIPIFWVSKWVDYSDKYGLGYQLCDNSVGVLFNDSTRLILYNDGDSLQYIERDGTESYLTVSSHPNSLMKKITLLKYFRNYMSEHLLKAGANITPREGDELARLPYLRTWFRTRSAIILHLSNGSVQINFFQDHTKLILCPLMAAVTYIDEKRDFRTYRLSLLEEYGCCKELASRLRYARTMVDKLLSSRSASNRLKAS
Put plainly: Luciferase assay for PLK1 in HeLa LgBit (Plk1-HiBit KI) cell line. The experiment is classed as cell-based. As to conditions: 300 nM compound, luminescence after 9 hours. The procedure:
2. Luciferase Assay for PLK1
(1) Preparation and Culture of HeLa LgBit (Plk1-HiBit KI) Cell Line
A HeLa cell line in which the LgBit vector was transfected and expressed stably was prepared. Then, after constructing gRNA and donor to express the HiBit amino acid sequence behind the C-terminal of the Plk1 gene, which was inherent in the cell, it was inserted into the cell together with a vector capable of expressing CRISPR/Cas9. Only the cells in which the insertion was completed and knock-in had progressed were selected, sub-cultured and used.
(2) Treatment of Compounds of the Present Invention and Method of Luciferase Assay
In the case of HeLa LgBit (Plk1-HiBit KI), the compounds were treated after being released after thymidine block, and the process was as follows. Thymidine (Sigma-Aldrich Cat. No. T9250-5G) was completely dissolved in DW and used in the experiment. For thymidine block, the products were treated with 2 mM of thymidine and then incubated for 24 hours. For release and chemical treatment, the medium was suctioned and washed with 1×PBS. TrypLE™ was added and incubated in 37° C. CO2 incubator for 5 min. Cells neutralized by adding complete media were counted through a counter. For each well of a 96-well culture plate (SPL), 3.3×10^4 cells and a total medium volume of 150 μL were seeded and incubated in a CO2 incubator.
Each cell line was incubated in a CO2 incubator for 18 hours, and Endurazine was added to each well to make up 4% of the total volume. After adding the compound of the present invention in a 96-well white plate (SPL) to a concentration of 300 nM, the wavelength of the plate reader (BMG Labtech, CLARIOstar Plus) was set to […], and then the luminescence was tracked in real time.
In Table 2, Activity represents the ratio of the luminescense value of each Exemplary Compound treatment group to DMSO treatment group (+++: <0.3, ++<0.6, +<0.7).
In general terms: HiBiT is a short tag that completes a luciferase, so light tracks the accessible tagged protein.
On to `COc1cc(C(=O)NC2CC(N(C)CC3CCN(c4ccc5c(c4)C(=O)N(C4CCC(=O)NC4=O)C5=O)CC3)C2)ccc1Nc1ncc2c(n1)N(C1CCCC1)CC(F)(F)C(=O)N2C` (centres unmarked) [Compound 104, 4-((9-cyclopentyl-7,7-difluoro-5-methyl-6-oxo-6,7,8,9-tetrahydro-5H-pyrimido[4,5-b][1,4]diazepin-2-yl)amino)-N-(3-(((1-(2-(2,6-dioxopiperidin-3-yl)-1,3-dioxoisoindolin-5-yl)piperidin-4-yl)methyl)(methyl)amino)cyclobutyl)-3-methoxybenzamide], for which the “Activity: ratio of the luminescense value of each Exemplary Compound treatment group to DMSO treatment group” value (“Activity: ratio” below) is given as “++ (++<0.6)”.

As to `COc1cc(C(=O)Nc2ccc(OCCN3CCN(c4cccc5c4C(=O)N(C4CCC(=O)NC4=O)C5=O)CC3)cc2)c(F)cc1Nc1ncc2c(n1)N(C1CCCC1)CC(F)(F)C(=O)N2C` (centres unmarked) [Compound 141, 4-((9-cyclopentyl-7,7-difluoro-5-methyl-6-oxo-6,7,8,9-tetrahydro-5H-pyrimido[4,5-b][1,4]diazepin-2-yl)amino)-N-(4-(2-(4-(2-(2,6-dioxopiperidin-3-yl)-1,3-dioxoisoindolin-4-yl)piperazin-1-yl)ethoxy)phenyl)-2-fluoro-5-methoxybenzamide], the “Activity: ratio” value is reported as “++ (++<0.6)”.

Regarding `COc1cc(C(=O)N2CCC(CN3CCN(c4cccc5c4C(=O)N(C4CCC(=O)NC4=O)C5=O)CC3)CC2)ccc1Nc1ncc2c(n1)N(C1CCCC1)CC(F)(F)C(=O)N2C` (centres unmarked) [Compound 93, 4-(4-((1-(4-((9-cyclopentyl-7,7-difluoro-5-methyl-6-oxo-6,7,8,9-tetrahydro-5H-pyrimido[4,5-b][1,4]diazepin-2-yl)amino)-3-methoxybenzoyl)piperidin-4-yl)methyl)piperazin-1-yl)-2-(2,6-dioxopiperidin-3-yl)isoindoline-1,3-dione], the “Activity: ratio” value is “++ (++<0.6)”.

On to `COc1cc(C(=O)NCCOCCOCCOCCOCCNc2cccc3c2C(=O)N(C2CCC(=O)NC2=O)C3=O)c(N2CCN(C)CC2)cc1Nc1ncc2c(n1)N(C1CCCC1)CC(F)(F)C(=O)N2C` (centres unmarked) [Compound 224, 4-((9-cyclopentyl-7,7-difluoro-5-methyl-6-oxo-6,7,8,9-tetrahydro-5H-pyrimido[4,5-b][1,4]diazepin-2-yl)amino)-N-(14-((2-(2,6-dioxopiperidin-3-yl)-1,3-dioxoisoindolin-4-yl)amino)-3,6,9,12-tetraoxatetradecyl)-5-methoxy-2-(4-methylpiperazin-1-yl)benzamide], for which the “Activity: ratio” value was “++ (++<0.6)”.

With `COc1cc(C(=O)NC2CCN(C(=O)CC[C@@H]3CN(Cc4cccc5c4C(=O)N(C4CCC(=O)NC4=O)C5=O)CCO3)CC2)ccc1Nc1ncc2c(n1)N(C1CCCC1)CC(F)(F)C(=O)N2C` (stereo partly drawn) [Compound 173, 4-((9-cyclopentyl-7,7-difluoro-5-methyl-6-oxo-6,7,8,9-tetrahydro-5H-pyrimido[4,5-b][1,4]diazepin-2-yl)amino)-N-(1-(3-((2R)-4-((2-(2,6-dioxopiperidin-3-yl)-1,3-dioxoisoindolin-4-yl)methyl)morpholin-2-yl)propanoyl)piperidin-4-yl)-3-methoxybenzamide], the “Activity: ratio” value was “+ (+<0.7)”.

In the case of `COc1cc(C(=O)NC2CCN(C(=O)CCNc3cccc4c3C(=O)N(C3CCC(=O)NC3=O)C4=O)CC2)c(F)cc1Nc1ncc2c(n1)N(C1CCCC1)CC(F)(F)C(=O)N2C` (centres unmarked) [Compound 24, 4-((9-cyclopentyl-7,7-difluoro-5-methyl-6-oxo-6,7,8,9-tetrahydro-5H-pyrimido[4,5-b][1,4]diazepin-2-yl)amino)-N-(1-(3-((2-(2,6-dioxopiperidin-3-yl)-1,3-dioxoisoindolin-4-yl)amino)propanoyl)piperidin-4-yl)-2-fluoro-5-methoxybenzamide], the “Activity: ratio” value was “+ (+<0.7)”.

`COc1cc(C(=O)N[C@H]2CC[C@@H](N(C)CCCNc3cccc4c3C(=O)N(C3CCC(=O)NC3=O)C4=O)CC2)ccc1Nc1ncc2c(n1)N(C1CCCC1)CC(F)(F)C(=O)N2C` (some centres unmarked) [Compound 16, 4-((9-cyclopentyl-7,7-difluoro-5-methyl-6-oxo-6,7,8,9-tetrahydro-5H-pyrimido[4,5-b][1,4]diazepin-2-yl)amino)-N-((1s,4s)-4-((3-((2-(2,6-dioxopiperidin-3-yl)-1,3-dioxoisoindolin-4-yl)amino)propyl)(methyl)amino)cyclohexyl)-3-methoxybenzamide]: the “Activity: ratio” value was “+ (+<0.7)”.

With `COc1cc(C(=O)N2CCC(N3CCN(CCOCCCNc4ccc5c(c4)C(=O)N(C4CCC(=O)NC4=O)C5=O)CC3)CC2)c(F)cc1Nc1ncc2c(n1)N(C1CCCC1)CC(F)(F)C(=O)N2C` (centres unmarked) [Compound 192, 5-((3-(2-(4-(1-(4-((9-cyclopentyl-7,7-difluoro-5-methyl-6-oxo-6,7,8,9-tetrahydro-5H-pyrimido[4,5-b][1,4]diazepin-2-yl)amino)-2-fluoro-5-methoxybenzoyl)piperidin-4-yl)piperazin-1-yl)ethoxy)propyl)amino)-2-(2,6-dioxopiperidin-3-yl)isoindoline-1,3-dione], the “Activity: ratio” value was “++ (++<0.6)”.

For the compound `COc1cc(C(=O)NC2CCN(CCSc3cccc4c3C(=O)N(C3CCC(=O)NC3=O)C4=O)CC2)c(F)cc1Nc1ncc2c(n1)N(C1CCCC1)CC(F)(F)C(=O)N2C` (centres unmarked) [Compound 11, 4-((9-cyclopentyl-7,7-difluoro-5-methyl-6-oxo-6,7,8,9-tetrahydro-5H-pyrimido[4,5-b][1,4]diazepin-2-yl)amino)-N-(1-(2-((2-(2,6-dioxopiperidin-3-yl)-1,3-dioxoisoindolin-4-yl)thio)ethyl)piperidin-4-yl)-2-fluoro-5-methoxybenzamide], the “Activity: ratio” value is “++ (++<0.6)”.

For the compound `COc1cc(C(=O)N2CCN(CCCCNc3cccc4c3C(=O)N(C3CCC(=O)NC3=O)C4=O)CC2)c(F)cc1Nc1ncc2c(n1)N(C1CCCC1)CC(F)(F)C(=O)N2C` (centres unmarked) [Compound 184, 4-((4-(4-(4-((9-cyclopentyl-7,7-difluoro-5-methyl-6-oxo-6,7,8,9-tetrahydro-5H-pyrimido[4,5-b][1,4]diazepin-2-yl)amino)-2-fluoro-5-methoxybenzoyl)piperazin-1-yl)butyl)amino)-2-(2,6-dioxopiperidin-3-yl)isoindoline-1,3-dione], the “Activity: ratio” value is listed as “+ (+<0.7)”.

`COc1cc(C(=O)NCCOCCNc2cccc3c2C(=O)N(C2CCC(=O)NC2=O)C3=O)c(N2CCN(C)CC2)cc1Nc1ncc2c(n1)N(C1CCCC1)CC(F)(F)C(=O)N2C` (centres unmarked) [Compound 221, 4-((9-cyclopentyl-7,7-difluoro-5-methyl-6-oxo-6,7,8,9-tetrahydro-5H-pyrimido[4,5-b][1,4]diazepin-2-yl)amino)-N-(2-(2-((2-(2,6-dioxopiperidin-3-yl)-1,3-dioxoisoindolin-4-yl)amino)ethoxy)ethyl)-5-methoxy-2-(4-methylpiperazin-1-yl)benzamide]: the “Activity: ratio” value is listed as “+ (+<0.7)”.

Source of the values: patent publication US20250114460A1, “NOVEL PLK1 DEGRADATION INDUCING COMPOUND” (UPPTHERA, INC., priority 2021, published 2025).
